Assay results reported in PubChem BioAssay (NCI).
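Dose response: 5 concentrations. Exposure: 48 h. Format: 96-well plates. Endpoint: linear interpolation; highest concentration if not reached. GI50 marks 50% less growth. Definition used: TGI = concentration required for complete inhibition of growth.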

Columns and labels:
Test in all cases: NCI-60 cell line screen, 48 h
[1] = system: COLO 205 colon
[2] = system: DU-145 prostate
[3] = system: HCC-2998 colon
[4] = system: HCT-116 colon
[5] = system: MDA-MB-231 breast
[6] = system: MDA-MB-435
[7] = system: NCI-H23 lung
[8] = system: SF-268 CNS
[9] = system: TK-10 renal
[10] = system: HS 578T breast

SMILES | TGI [1] [µM] | TGI [2] [µM] | TGI [3] [µM] | TGI [4] [µM] | TGI [5] [µM] | TGI [6] [µM] | TGI [7] [µM] | TGI [8] [µM] | TGI [9] [µM] | GI50 [1] [µM] | GI50 [2] [µM] | GI50 [3] [µM] | GI50 [4] [µM] | GI50 [5] [µM] | GI50 [6] [µM] | GI50 [7] [µM] | GI50 [8] [µM] | GI50 [9] [µM] | GI50 [10] [µM] | TGI [10] [µM]
CCCCN(CCCC)CCC(O)c1cc2c(Cl)cc(Cl)cc2c2cc(C(F)(F)F)ccc12 (stereo unspecified) | 23.6 | 22 | 24.2 | 25.2 | 15.3 | 28.7 | 30.6 | 24.4 | 27.6 | – | – | – | – | – | – | – | – | – | – | –
COC(=O)N/N=C(/CCC(=O)Nc1ccc(C)c(C)c1)CC(=O)C(C)(C)C | > 100 | – | > 100 | – | – | – | > 100 | > 100 | > 100 | – | – | – | – | – | – | – | – | – | – | –
CC1C[C@]2(C[C@@H](C)C(=O)O2)O[C@@H]2CC3(C)[C@@H]4CCC5C(C)(C)OC(=O)C[C@H]6OO[C@]4(CC[C@]3(C)C12)CC56O (stereo partly specified) | – | – | > 100 | – | – | – | > 100 | – | > 100 | – | – | – | – | – | – | – | – | – | – | –
CCOC(=O)C1=C(C)N(NC(N)=O)C(C)(O)C12CCOC2=O (stereo unspecified) | – | – | > 100 | > 100 | – | – | – | > 100 | – | – | – | – | – | – | – | – | – | – | – | –
CC1=C(C(=O)Nc2ccc([N+](=O)[O-])cc2)C(c2ccc3c(c2)OCO3)C(C(=O)Nc2ccc([N+](=O)[O-])cc2)=C(C)N1 | 18.4 | – | 57.4 | > 100 | – | – | 57.9 | > 100 | – | – | – | – | – | – | – | – | – | – | – | –
COc1ccc(-c2cc(-c3cc(Cl)cc(Br)c3O)[nH]c(=O)n2)cc1 | 29 | – | 45.5 | 24.5 | – | – | 29.4 | 50 | 47.3 | – | – | – | – | – | – | – | – | – | – | –
Cc1cccc(N2C(=O)C(=O)C(c3nc4ccccc4s3)/C(=N/NC(=S)NN)C2=O)c1C (stereo unspecified) | > 100 | – | > 100 | > 100 | – | – | > 100 | > 100 | > 100 | – | – | – | – | – | – | – | – | – | – | –
CCN(CC)C(=O)N1CCN(C=S)CC1 | > 100 | – | > 100 | > 100 | – | – | > 100 | > 100 | > 100 | – | – | – | – | – | – | – | – | – | – | –
CC(/C=C/c1ccccc1)=N\NC(N)=S | 44.2 | > 100 | 79.1 | > 100 | > 100 | 84.4 | > 100 | > 100 | > 100 | – | – | – | – | – | – | – | – | – | – | –
Cc1cc(C(=O)O)c(C)n1-c1cccc(C(=O)O)c1 | > 100 | > 100 | > 100 | > 100 | > 100 | > 100 | > 100 | > 100 | > 100 | > 100 | > 100 | > 100 | > 100 | > 100 | > 100 | > 100 | > 100 | > 100 | – | –
NCCOc1ccccc1/C=C1\c2ccccc2-c2ccc([N+](=O)[O-])cc21 | 3.44 | 2.21 | 3.09 | 2.51 | 2.99 | 3.09 | 3.23 | 3.15 | – | 1.75 | 1.03 | 1.51 | 1.25 | 1.58 | 1.68 | 1.7 | 1.58 | – | 1.72 | 3.79
O=C1Nc2ccccc2/C1=C\c1nc(C2CCN(S(=O)(=O)c3ccc(F)cc3)CC2)n2ccccc12 | > 100 | > 100 | > 100 | > 100 | 60.8 | – | 68.4 | 13.8 | 8.62 | > 100 | 4.35 | > 100 | 13.3 | 2.9 | – | 4.29 | 1.9 | 2.41 | 1.22 | 5.78
OCCNCCCOc1ccc2ncnc(Nc3ccc(Oc4cccc(C(F)(F)F)c4)c(Cl)c3)c2c1 | – | 2.66 | 3.1 | – | 3.2 | 3.21 | 3.13 | – | 2.54 | – | 1.33 | 1.64 | – | 1.72 | 1.72 | 1.63 | – | 1.13 | – | –
CC1(C)C=N[N+]2(C)C3C=CC(CC3)C12 (stereo unspecified) | > 100 | – | > 100 | > 100 | – | – | > 100 | > 100 | > 100 | – | – | – | – | – | – | – | – | – | – | –
Oc1ccc(CCNCc2cc3c(cc2Br)OCO3)cc1 | 40.8 | > 100 | – | > 100 | > 100 | – | > 100 | > 100 | > 100 | – | – | – | – | – | – | – | – | – | – | > 100
Cc1ccn2c(CCc3nnc4cc(C)ccn34)nnc2c1 | > 100 | > 100 | – | > 100 | > 100 | > 100 | > 100 | > 100 | > 100 | – | – | – | – | – | – | – | – | – | – | > 100
C=CC1(NS(=O)(=O)c2ccc(C)cc2)CCC(C(C)(C)C)CC1 (stereo unspecified) | > 100 | – | > 100 | > 100 | – | – | – | > 100 | > 100 | – | – | – | – | – | – | – | – | – | – | –
O=[N+]([O-])c1ccc(/C=C/c2csnn2)cc1 | – | – | > 100 | > 100 | – | – | > 100 | > 100 | > 100 | – | – | – | – | – | – | – | – | – | – | –
Cc1cc(N2CCCC2)nc(NCc2cc(Nc3ccnc4cc(Cl)ccc34)ccc2F)n1 | 1.43 | 2.69 | 2.45 | 0.557 | – | 2.99 | 3.63 | 3.14 | 3.72 | 0.278 | 1.3 | 1.13 | 0.198 | – | 1.51 | 1.3 | 1.36 | 2.14 | 1.51 | 3.91
NC(N)=Nc1nc2ccc([N+](=O)[O-])cc2[nH]1 | > 100 | > 100 | – | > 100 | > 100 | > 100 | > 100 | > 100 | > 100 | – | – | – | – | – | – | – | – | – | – | > 100
Cc1ccc(C2=C(c3ccccc3)C(c3ccccc3)Oc3ccc(C)cc32)cc1 (stereo unspecified) | – | 12.5 | 3.1 | 3.43 | 30.5 | 26.8 | 5.53 | 38.7 | 32.4 | – | 3.56 | 1.64 | 1.68 | 13 | 8.5 | 2.2 | 13.2 | 13.7 | 2.74 | 10.1
